Assay: ORAC (OARC-fluorescein) determination of the antioxidant effect, Trolox as standard
Settings: OARC-fluorescein method; calibration curve with Trolox as standard
Protocol: The antioxidant effect and the synergy between the individual components were determined according to the OARC-fluorescein method, in which inhibition time and the inhibition degree are reflected in a measured value. The measurements were performed by means of the device Synergy H4 by BioTek Inc., the calculated values were taken from a calibration curve with Trolox used as a standard. The method is described in more detail, for example, in the publications by Prior et. al., J. Agric Food. Chem. 50, pp. 4437-4444 […] and Dovalos et. al, ibid 52, pp. […] (2004). These publications are incorporated into this patent application by reference with regard to the description of the measuring method.

O=C(O)/C=C/c1ccc(O)c(O)c1 [Example V1, Caffeic acid]
ORAC value, Measured: 21.587

COc1cc(C=CC(=O)O)cc(OC)c1O (stereo in doubt) [Example V2, Sinapinic acid]
ORAC value, Measured: 11.459

From patent US9078872B2, “Antioxidant composition” (Symrise AG, priority 2013, dated 2015)
